Measurements published in PMC6099493, “Discovery of Matrinic Thiadiazole Derivatives as a Novel Family of Anti-Liver Fibrosis Agents via Repression of the TGFβ/Smad Pathway” (Molecules : A Journal of Synthetic Chemistry and Natural …, 2018).
Where a name gives a salt, the structure may show the parent alone.

Key:
COL1A1 promotor = COL1A1 promotor single luciferase reporter gene model in LX-2 (LX2-COL) cells; format: cell-based, human; details: Homo sapiens, LX-2 cells treated simultaneously with TGFβ1 and compound, read-out: Inhibition Percentage (inhibition rate of COL1A1 promotor's activity in LX2 cells)
[1] = MTT cytotoxicity / cell survival assay; format: cell-based; details: human, HepG2 cells, read-out: CC50 (cytotoxic concentration required to inhibit HepG2 cell growth by 50%)
Protocol: (§1) A single luciferase reporter gene detection model was applied to screen the inhibitory effects towards COL1A1 promotor of all target compounds in human hepatic stellate LX-2 cells at the concentration of 40 μM, taking EGCG and compound 1 as the positive controls. The LX2-COL monoclone cell line was treated simultaneously with TGFβ1 and a target compound [13]. The cytotoxicity was determined using MTT assay in HepG2 cells.
(§2) The cell survival was evaluated by MTT assay. HepG2 cells were seeded at density of 6 × 10^3 cells/well in 96-well plate. Cells were treated with various concentrations of matrinic derivate until the cells at 50% confluence. After 24 h of incubation, 20 µL of the MTT (5 mg/mL) solution was added into each plate and incubated for 4 h at 37 °C, 5% CO2. Subsequently, the culture supernatant was replaced with 150 µL DMSO to dissolve the formazan crystal. The absorbance at 570 nm was measured using a microplate reader (ELx800, BioTek Instruments, Winooski, VT, USA).

COL1A1 mRNA = COL1A1 mRNA level by real-time PCR in TGFβ1-stimulated LX-2 cells; format: cell-based, human; details: 80 μM, TGFβ1 2 ng/mL
Protocol: (§3) Next, compounds 6i, 6l and 6n were chosen as the key compounds to verify their inhibitory effects against COL1A1. LX-2 cells were stimulated with TGFβ1 (2 ng/mL), and then treated with compounds 6i, 6l and 6n (80 μM) respectively, taking 1 as the control. Their anti-COL1A1 effects were evaluated on RNA level by real-time PCR amplification. […] Then their anti-COL1A1 effects were investigated on the protein level by western blot assays.
(§4) LX-2 cells were seeded in 6-well plate, cultured in DMEM, containing 10% fetal bovine serum (FBS) in a 5% CO2 atmosphere at 37 °C. And serum-free culture was required until the cells at 90–95% confluence. After 24 h, cells were treated with TGFβ1 (2 ng/mL) and matrinic derivatives (80 μM) for 24 h. Total RNA from the LX-2 cells was extracted using Trizol reagent, purified by NucleoSpin RNA Clean-up. Reverse transcription was performed with a Transcriptor first strand cDNA synthesis kit. The cDNA was then analysis by ABI 7500 Fast Real-Time PCR System (ThermoFisher Scientific, Singapore) using TaqMan probes of TGFβ1, COL1A1, α-SMA, and GAPDH (sequence reserved by ABI, Foster City, CA ,USA) and FastStart Universal Probe master mix (Roche, Indianapolis, IN, USA).

COL1A1 protein = COL1A1 protein level by western blot in LX-2 cells; format: cell-based; details: Homo sapiens, TGFβ1 2 ng/mL, read-out: COL1A1 protein level inhibition rate
Protocol: as §3
(§5) LX-2 cells were cultured as described above. Briefly, cells were washed with phosphate-buffered saline (PBS) and were lysed in radioimmunoprecipitation assay (RIPA) lysis for 30 min in 4 °C; the supernatant was collected after centrifugation at 12,000× g, 4 °C for 15 min. Equal amounts of protein were quantified with Bradford assay, separated by SDS-PAGE and transferred to polyvinylidene difluoride membrane. The membranes were blocked for one hour at room temperature in PBST containing 5% milk and probed with specific first antibodies overnight at room temperature. Membrane was washed 3 times by PBST, followed by horseradish peroxidase-conjugated secondary antibodies and GAPDH. The proteins were visualized using chemiluminescence reagents.

α-SMA mRNA = α-SMA mRNA level by real-time PCR in TGFβ1-stimulated LX-2 cells; format: cell-based, human; details: 80 μM, TGFβ1 2 ng/mL
Protocol: (§6) α-SMA is a more commonly recognized indicator for liver fibrosis, and it could be induced by a stimulation of TGFβ1 [22], therefore, the amounts of α-SMA were also evaluated.
as §4

α-SMA protein = α-SMA protein level by western blot in LX-2 cells; format: cell-based; details: Homo sapiens, TGFβ1 2 ng/mL, read-out: α-SMA protein level inhibition rate
Protocol: as §6, §5

HepG2 cells = assay: MTT cytotoxicity / cell survival assay; format: cell-based; details: read-out: CC50 (cytotoxic concentration required to inhibit HepG2 cell growth by 50%)
Protocol: as §1, §2

[2] = test system: Smad2 / phosphorylated Smad2 (TGFβ/Smad pathway); assay: Smad2 and p-Smad2 levels by western blot in LX-2 cells; format: cell-based, human
Protocol: Considering the key role of TGFβ/Smad pathway in activating COL1A1, the effects of the three compounds on Smad and phosphorylated Smad were then evaluated.
as §5

Kunming mice = details: female, mouse, in vivo, po, 7 days
Protocol: To evaluate the safety profile of 6n, an acute toxicity test was performed in Kunming mice. Compound 6n was given orally in a single-dosing experiment at 125, 250 or 500 mg·kg^−1, respectively. The mice were closely monitored for 7 days. To our delight, it gave the median lethal dose (LD50) value over 500 mg·kg^−1, indicating a good safety profile in vivo.
Female Kunming mice with weight of 20.0 (±1.0 g) were obtained from the Institute of Laboratory Animal Science (Beijing, China). Animals were cared according to the institutional guidelines of the Institute of Materia Medica, CAMS&PUMC (00000364). The mice were fed with regular rodent chow and housed in an air conditioned room. The mice were randomly divided into different groups with 6 mice each. Each compound was given orally in a single-dosing experiment at 0, 250, 500, 750 or 1000 mg·kg^−1 (ddH2O as control), respectively. The mice were closely monitored for 7 days. Body weight as well as survival was monitored.

Compound | melting point | inhibition at 40 µM (COL1A1 promotor) | CC50 at 24 h [1] | COL1A1 mRNA level inhibitory rate (COL1A1 mRNA) | inhibition at 80 µM (COL1A1 protein) | α-SMA mRNA level inhibitory rate (α-SMA mRNA) | inhibition at 80 µM (α-SMA protein) | CC50 (HepG2 cells) | Effect on Smad level [2] | Effect on phosphorylation level of Smad2 (in words) [2] | Inhibition rate of Smad2 phosphorylation level [2] | median lethal dose (LD50) (Kunming mice)
Cc1ccc(S(=O)(=O)N2CC3CCCN4CCCC(C34)C2CCCC(=O)O)cc1 (stereo not shown) [Compound 1, 12-N-p-Methylbenzenesulfonyl matrinic acid] | 239 to 240 °C | 18.5% | > 320 µM | 41.9% | 16.2% | 69.7% | 28.9% |  |  |  |  | 
Cc1ccc(S(=O)(=O)N2CC3CCCN4CCCC(C34)C2CCCc2nnc(Nc3ccccc3)s2)cc1 (stereo not shown) [Compound 6e, 12-N-p-Methylbenzenesulfonyl-3′-(N-phenyl-5-amino-1,3,4-thiadiazol-2-yl)-matrinic propane] |  | 69% | > 82.6 µM |  |  |  |  | 82.5 µM |  |  |  | 
Cc1ccc(CN2CC3CCCN4CCCC(C2CCCc2nnc(N(C)C)s2)C34)cc1 (stereo not shown) [Compound 6n, 12-N-p-Methylbenzyl-3′-(N,N-dimethyl-5-amino-1,3,4-thiadiazol-2-yl)-matrinic propane hydrochloride] |  | 39.7% | > 320 µM | 78.4% | 47.6% | 87.6% | 104% |  | did not affect the Smad level | repressed the phosphorylation level of Smad2 significantly | 49.8% | over 500 mg·kg^−1

Further lines, with some results ahead:

melting point | Compound | inhibition at 40 µM (COL1A1 promotor) | CC50 at 24 h [1] | COL1A1 mRNA level inhibitory rate (COL1A1 mRNA) | inhibition at 80 µM (COL1A1 protein) | α-SMA mRNA level inhibitory rate (α-SMA mRNA) | inhibition at 80 µM (α-SMA protein) | CC50 (HepG2 cells) | Effect on Smad level [2] | Effect on phosphorylation level of Smad2 (in words) [2] | Inhibition rate of Smad2 phosphorylation level [2] | median lethal dose (LD50) (Kunming mice)
170 to 171 °C | Nc1nnc(CCCC2C3CCCN4CCCC(CN2Cc2ccccc2)C34)s1 (stereo not shown) [Compound 6i, 12-N-Benzyl-3′-(5-amino-1,3,4-thiadiazol-2-yl)-matrinic propane] | 47.8% | > 320 µM | 46.1% | 65% | 75.1% | 64.9% |  | did not affect the Smad level | repressed the phosphorylation level of Smad2 significantly |  | 
167 to 168 °C | Cc1ccc(CN2CC3CCCN4CCCC(C2CCCc2nnc(N)s2)C34)cc1 (stereo not shown) [Compound 6l, 12-N-p-Methylbenzyl-3′-(5-amino-1,3,4-thiadiazol-2-yl)-matrinic propane] | 38.7% | > 320 µM |  | 99.3% | 82.5% | 93.8% |  | did not affect the Smad level | repressed the phosphorylation level of Smad2 significantly |  | 
